The test system of one assay is IL-17 secretion in PBMC. Kind of assay: PBMC IL-17 Secretion ELISA. Type of assay: cell-based. The note with it: Homo sapiens; anti-CD3/anti-CD28/IL-23 stimulated PBMC, 48 hours; mean ± standard deviation; read-out: hPBMC IL-17 ELISA (EC50). Here is the method:
(§1) PBMC's are isolated from whole blood buffy coats by first combining fresh buffy coats with equal volumes of phosphate buffered saline. Thirty five mL of PBS/buffy coat solution are then gently overlaid onto 15 mL of Ficoll in 50 mL conical tubes. Following centrifugation for 30 minutes at 500×g (with slow acceleration and deceleration) the top layer of plasma is discarded and the layer of cells along the Ficoll interface is collected and pooled. Each 250 mL tube is filled to the top with room temperature RPMI-1640 media. Tubes are spun for 10 minutes at 500×G (with slow acceleration and deceleration), the media is removed by aspiration, and the wash step is repeated. Cells are resuspended in ice cold Recovery Cell Culture Freezing Medium from Life Technologies (Catalog number 12648-010) on ice. The cell concentration is adjusted to 66.7 million cells/mL. Cell are slow frozen at −1° C./minute in vials with 100 million cells and stored in liquid nitrogen.
PBMC are brought out of thaw by resuspending with 1 mL of complete media (RPMI-1640 containing 30 mM HEPES, 100 units/mL penicillin, 100 μg/mL streptomycin, 3.25 mM L-Glutamine, 0.2 μM beta-mercaptoethanol, and 10% FBS) followed by the drop wise addition of 2 mL, 4 mL, 8 mL, and 16 mL of complete media with gentle swirling. Cells are spun down for 5 minutes and the cell pellet is resuspended in complete media. Clumps of cells are broken up by running the cell solution through a 23 gauge syringe needle and a […] cell strainer. One hundred thousand cells per well are added to 384 well polystyrene tissue culture treated flat bottomed plates in a total of 30 μL. […]
Following the incubation period the plates are spun at 200×g for five minutes. […] Absorbance at 492 nm is measured with the Envision multi-label plate reader. […] IC50's for inhibition of IL-17 secretion is calculated based on converted values using a standard 4-parameter fit with maximum inhibition determined from the average values of wells with no added stimulants nor compounds and minimum inhibition from the average values of wells with stimulants alone and no added compound.

For assay [1], the target named is human RAR-related orphan receptor gamma (hRORg) (Homo sapiens (Human), UniProt P51449). Kind of assay: RORg receptor-ligand competition binding assay. The note with it: His-tagged hRORg, [3H]-25-hydroxycholesterol; mean ± standard deviation.
Sequence of human RAR-related orphan receptor gamma (hRORg) (P51449 whole entry): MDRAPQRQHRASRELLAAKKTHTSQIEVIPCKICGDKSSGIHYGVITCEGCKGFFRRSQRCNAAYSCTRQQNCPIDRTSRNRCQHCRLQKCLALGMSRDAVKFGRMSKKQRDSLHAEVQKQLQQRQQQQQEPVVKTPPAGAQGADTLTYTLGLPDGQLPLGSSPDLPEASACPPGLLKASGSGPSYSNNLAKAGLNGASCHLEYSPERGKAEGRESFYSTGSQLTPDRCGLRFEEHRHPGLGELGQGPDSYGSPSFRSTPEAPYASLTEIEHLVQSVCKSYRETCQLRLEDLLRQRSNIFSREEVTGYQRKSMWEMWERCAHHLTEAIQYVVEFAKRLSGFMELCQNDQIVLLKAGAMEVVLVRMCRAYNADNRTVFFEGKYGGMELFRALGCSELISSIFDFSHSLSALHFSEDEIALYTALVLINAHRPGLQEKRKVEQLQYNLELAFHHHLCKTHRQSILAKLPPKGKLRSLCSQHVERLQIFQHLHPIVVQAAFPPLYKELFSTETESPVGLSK
Assay [2] addresses human RAR-related orphan receptor beta (hRORb) (Homo sapiens (Human), UniProt Q92753). As to the kind of experiment: RORb receptor-ligand competition binding assay. The note with it: His-tagged hRORb, [3H]-labelled isoxazole benzoic acid ligand.
Assay [3] has as its target human RORg ligand binding domain fused to yeast GAL4 DNA binding domain (Homo sapiens (Human), UniProt P51449). As to the kind of experiment: HEK293 RORg GAL4 Receptor-Reporter Assay. In kind it is cell-based. The note with it: HEK293 cells, RORg-GAL4/pGL4.31 luciferase reporter, 18 hours; mean ± standard deviation; read-out: hIC50. Here is the method:
As an indicator of inverse agonist activity, an RAR-related orphan receptor gamma (RORg) receptor-reporter assay (RORg-GAL4/pGL4.31) is performed in HEK293 cells. HEK293 cells are co-transfected using Fugene™ reagent. A reporter plasmid containing a GAL4 binding domain and a minimal adenoviral promoter upstream of a firefly luciferase gene is co-transfected with a plasmid constitutively expressing a human RORg ligand binding domain fused to yeast GAL4 DNA binding domain. Cells are transfected in T150 cm^2 flasks in MEM media without FBS. After 18 hours incubation, transfected cells are trypsinized, plated in 96-well microtiter plates in 3:1 DMEM-F12 media containing 10% FBS, incubated for 4 hours and then exposed to various concentrations of test compounds ranging from about 0.05 nM to 10 μM. After 18 hours of incubations with compounds, cells are lysed and luciferase activity is quantified using standard techniques. Data is fit to a 4 parameter-fit logistics to determine IC50 values.

The test system of a further assay is PBMC. Kind of assay: cells. In kind it is cell-based. The note with it: Homo sapiens, 48 h, read-out: Cell TiterGlo Viability (EC50). Here is the method:
as §1, with “[…].” for “The cell concentration is adjusted to 66.7 million cells/mL. Cell are slow frozen at −1° C./minute in vials with 100 million cells and stored in liquid nitrogen.”
PBMC are brought out of thaw by resuspending with 1 mL of complete media (RPMI-1640 containing 30 mM HEPES, 100 units/mL penicillin, 100 μg/mL streptomycin, 3.25 mM L-Glutamine, 0.2 μM beta-mercaptoethanol, and 10% FBS) followed by the drop wise addition of 2 mL, 4 mL, 8 mL, and 16 mL of complete media with gentle swirling. Cells are spun down for 5 minutes and the cell pellet is resuspended in complete media. Clumps of cells are broken up by running the cell solution through a 23 gauge syringe needle and a 40 μM cell strainer. […].
Equal volumes of Cell TITERGLO® cell viability testing reagent (Promega Cat #G7573) are added to the cells remaining in the plates, and following a fifteen minute incubation with gentle shaking at room temperature luminescence is measured with the Envision multi-label plate reader. Percent cell death is calculated by setting 100% activity (cell death) to zero luminescence units and minimum activity (max number of viable cells) as the average luminescence units of wells containing stimulants alone and no added compound. IC50's are calculated using a standard four parameter fit.
A general note: ATP-based viability assays read luminescence as a measure of living cells.

Assay [4] concerns the target human RAR-related orphan receptor alpha (hRORa) (Homo sapiens (Human), UniProt P35398). As to the kind of experiment: RORa receptor-ligand competition binding assay. The note with it: His-tagged hRORa, [3H]-25-hydroxycholesterol; mean ± standard deviation.

Drawing on patent publication US10603320B2, “Compounds useful for inhibiting ROR-gamma-t” (Eli Lilly and Company, priority 2017, dated 2020), this text covers EC50, Ki and IC50 for 3 molecules.

Sequence of human RORg ligand binding domain fused to yeast GAL4 DNA binding domain (P51449 269-508): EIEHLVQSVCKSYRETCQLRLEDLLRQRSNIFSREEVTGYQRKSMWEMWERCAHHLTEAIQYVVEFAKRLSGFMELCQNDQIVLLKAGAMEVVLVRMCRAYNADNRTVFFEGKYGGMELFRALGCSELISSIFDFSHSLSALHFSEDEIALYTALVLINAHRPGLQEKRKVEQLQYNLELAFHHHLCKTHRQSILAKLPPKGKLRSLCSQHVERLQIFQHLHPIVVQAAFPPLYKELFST
Sequence of human RAR-related orphan receptor beta (hRORb) (Q92753 whole entry, the tested form may be a part): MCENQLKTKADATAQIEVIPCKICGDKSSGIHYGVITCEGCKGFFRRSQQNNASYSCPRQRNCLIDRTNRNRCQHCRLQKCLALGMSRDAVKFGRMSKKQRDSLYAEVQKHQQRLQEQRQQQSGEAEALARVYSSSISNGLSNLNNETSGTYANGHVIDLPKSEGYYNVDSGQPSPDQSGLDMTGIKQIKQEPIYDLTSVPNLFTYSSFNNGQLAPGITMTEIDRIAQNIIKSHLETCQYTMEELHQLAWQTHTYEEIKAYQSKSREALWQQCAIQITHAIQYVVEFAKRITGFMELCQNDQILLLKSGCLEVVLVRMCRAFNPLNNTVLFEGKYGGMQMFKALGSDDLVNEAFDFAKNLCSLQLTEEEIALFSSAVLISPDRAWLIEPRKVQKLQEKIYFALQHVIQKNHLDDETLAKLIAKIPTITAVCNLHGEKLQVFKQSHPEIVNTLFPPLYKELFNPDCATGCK
Sequence of human RAR-related orphan receptor alpha (hRORa) (P35398 whole entry): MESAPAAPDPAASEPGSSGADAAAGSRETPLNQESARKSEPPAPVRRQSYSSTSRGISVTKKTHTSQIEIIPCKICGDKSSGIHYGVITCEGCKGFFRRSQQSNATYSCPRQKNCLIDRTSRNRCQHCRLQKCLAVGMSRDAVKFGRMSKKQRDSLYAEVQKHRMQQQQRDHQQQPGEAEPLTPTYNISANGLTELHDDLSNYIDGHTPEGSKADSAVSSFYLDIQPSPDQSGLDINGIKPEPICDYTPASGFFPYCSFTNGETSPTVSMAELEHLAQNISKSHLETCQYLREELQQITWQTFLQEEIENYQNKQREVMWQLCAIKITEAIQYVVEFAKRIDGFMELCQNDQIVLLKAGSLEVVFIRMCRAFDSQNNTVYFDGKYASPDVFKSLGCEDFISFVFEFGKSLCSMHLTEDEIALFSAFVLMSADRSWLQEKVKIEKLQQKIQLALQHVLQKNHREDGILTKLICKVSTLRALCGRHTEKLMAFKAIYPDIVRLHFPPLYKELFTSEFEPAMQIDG

In the case of `CCS(=O)(=O)c1ccc(CNC(=O)c2cc3c(s2)C2(CCN(C(C)c4ccc(C#N)cc4)CC2)OC2(CC2)C3)cc1` (single isomer, unassigned; isomer 1) [Example 8, 1′-[1-(4-Cyanophenyl)ethyl]-5,5-spirocyclopropane-N-[(4-ethylsulfonylphenyl)methyl]spiro[4H-thieno[2,3-c]pyran-7,4′-piperidine]-2-carboxamide isomer 1], the EC50 (as a rule, the concentration at which the effect is half-maximal) is 0.0109 ± 0.00644 µM in the assay with IL-17 secretion in PBMC and over 1 µM in the assay on PBMC. The Ki (in general, the equilibrium dissociation constant of an inhibitor or competing ligand from its target) was 0.006 ± 0.00181 µM in assay [1], over 12.5 µM in assay [2] and over 20.4 µM in assay [4]. Further, in assay [3], the IC50 stood at 0.0344 ± 0.00601 µM.
Turning to `CCS(=O)(=O)c1ccc(CNC(=O)c2cc3c(s2)C2(CCN([C@H](C)c4cnc(C(F)(F)F)nc4)CC2)OC(C)(C)C3)nc1` [Example 5, N-{[5-(Ethylsulfonyl)pyridin-2-yl]methyl}-5′,5′-dimethyl-1-{(1R)-1-[2-(trifluoromethyl)pyrimidin-5-yl]ethyl}-4′,5′-dihydrospiro[piperidine-4,7′-thieno[2,3-c]pyran]-2′-carboxamide], the EC50 was 0.011 ± 0.00767 µM in the assay on IL-17 secretion in PBMC and over 1 µM with PBMC. Moreover, the Ki in assay [1] was 0.00696 ± 0.00389 µM; in assay [2] it was over 12.5 µM. The IC50 in assay [3] was 0.0167 ± 0.0203 µM.
On the same counts, the results for `CCS(=O)(=O)c1ccc(CNC(=O)c2cc3c(s2)C2(CCN([C@H](C)c4cnc(C(F)(F)F)nc4)CC2)OC2(CC2)C3)nc1` [Example 7, N-{[5-(Ethylsulfonyl)pyridin-2-yl]methyl}-1″-(1R)-1-[2-(trifluoromethyl)pyrimidin-5-yl]ethyl-4′H-dispiro[cyclopropane-1,5′-thieno[2,3-c]pyran-7′,4″-piperidine]-2′-carboxamide] are 0.0146 ± 0.00824 µM, over 1 µM, 0.0064 ± 0.00262 µM, over 12.5 µM and 0.0223 ± 0.0238 µM.
